Source: the supplement of paper PMC11451515

System: SEM cells
Test: cell viability relative to DMSO control; higher = less cytotoxic
Conditions: 48 h
Method in brief: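 Viability is expressed as a percentage of DMSO wells within each plate, and cell-free wells serve as background. Seeding densities in the 1536-well plates (5 μl) were 500 cells/well for NOMO1 or SEM leukemia cells and 1000 cells/well for P12-Ichikawa. Each line was adapted for at least four passages in each medium. Library compounds in DMSO were pin-dosed at 47 μM to 0.79 nM (11 points, threefold), and CellTiter-Glo One luminescence was read after 48 h at 37°C.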

[1] = HPLM + 10% dialyzed FBS, 0.000781 µM
[2] = HPLM + 10% dialyzed FBS, 0.00234 µM
[3] = HPLM + 10% dialyzed FBS, 0.00702 µM
[4] = HPLM + 10% dialyzed FBS, 0.0211 µM
[5] = HPLM + 10% dialyzed FBS, 0.0632 µM
[6] = HPLM + 10% dialyzed FBS, 0.19 µM
[7] = HPLM + 10% dialyzed FBS, 0.569 µM
[8] = HPLM + 10% dialyzed FBS, 1.71 µM
[9] = HPLM + 10% dialyzed FBS, 5.12 µM
[10] = HPLM + 10% dialyzed FBS, 15.4 µM
[11] = HPLM + 10% dialyzed FBS, 46.1 µM
[12] = RPMI 5 mM glucose + 10% FBS, 0.000781 µM
[13] = RPMI 5 mM glucose + 10% FBS, 0.00234 µM
[14] = RPMI 5 mM glucose + 10% FBS, 0.00702 µM
[15] = RPMI 5 mM glucose + 10% FBS, 0.0211 µM
[16] = RPMI 5 mM glucose + 10% FBS, 0.0632 µM
[17] = RPMI 5 mM glucose + 10% FBS, 0.19 µM
[18] = RPMI 5 mM glucose + 10% FBS, 0.569 µM
[19] = RPMI 5 mM glucose + 10% FBS, 1.71 µM
[20] = RPMI 5 mM glucose + 10% FBS, 5.12 µM
[21] = RPMI 5 mM glucose + 10% FBS, 15.4 µM
[22] = RPMI 5 mM glucose + 10% FBS, 46.1 µM
[23] = RPMI 5 mM glucose + 10% dialyzed FBS, 0.000781 µM
[24] = RPMI 5 mM glucose + 10% dialyzed FBS, 0.00234 µM
[25] = RPMI 5 mM glucose + 10% dialyzed FBS, 0.00702 µM
[26] = RPMI 5 mM glucose + 10% dialyzed FBS, 0.0211 µM
[27] = RPMI 5 mM glucose + 10% dialyzed FBS, 0.0632 µM
[28] = RPMI 5 mM glucose + 10% dialyzed FBS, 0.19 µM
[29] = RPMI 5 mM glucose + 10% dialyzed FBS, 0.569 µM
[30] = RPMI 5 mM glucose + 10% dialyzed FBS, 1.71 µM
[31] = RPMI 5 mM glucose + 10% dialyzed FBS, 5.12 µM
[32] = RPMI 5 mM glucose + 10% dialyzed FBS, 15.4 µM
[33] = RPMI 5 mM glucose + 10% dialyzed FBS, 46.1 µM

Structure (SMILES)	cell viability [1] [%]	cell viability [2] [%]	cell viability [3] [%]	cell viability [4] [%]	cell viability [5] [%]	cell viability [6] [%]	cell viability [7] [%]	cell viability [8] [%]	cell viability [9] [%]	cell viability [10] [%]	cell viability [11] [%]	cell viability [12] [%]	cell viability [13] [%]	cell viability [14] [%]	cell viability [15] [%]	cell viability [16] [%]	cell viability [17] [%]	cell viability [18] [%]	cell viability [19] [%]	cell viability [20] [%]	cell viability [21] [%]	cell viability [22] [%]	cell viability [23] [%]	cell viability [24] [%]	cell viability [25] [%]	cell viability [26] [%]	cell viability [27] [%]	cell viability [28] [%]	cell viability [29] [%]	cell viability [30] [%]	cell viability [31] [%]	cell viability [32] [%]	cell viability [33] [%]
OC[C@H](Cc1ccccc1)Nc1nc(Oc2ccc3c(c2)CCC3)nc2c1ncn2Cc1ccc(-c2ccccc2)cc1	90.7	101	98.5	107	108	78.4	105	99.2	103	80.3	62.9	85.3	85.9	91.7	93.8	89.5	89.2	95	97.9	94.7	80.7	76.7	80	97.8	94.3	89.5	92.4	89.2	100	101	88.5	84.4	69.9
CC[C@H]1/C=C\C=C/C[C@@H](C)[C@H](O)[C@@](C)(O)C(=O)[C@@H](C)[C@H](O)[C@@H](C)C(=O)[C@@H](C)[C@H](O)[C@@H](C)/C=C/C(=O)O[C@@H]2[C@H](C)[C@H](CC1)O[C@]1(CC[C@H](C)[C@H](C[C@@H](C)O)O1)[C@H]2C	78.7	94.1	105	84.3	86.4	98.6	95.5	63.4	40.9	56.5	7.57	81.1	93.9	92.5	81.2	90.3	105	97.7	58.2	28.8	34.6	7.26	90.9	97	89	97.4	85.8	94.2	100	54.7	43.2	36.4	8.78
NC(CO)(CO)CCc1ccc(Sc2cccc(OCc3ccccc3)c2)cc1Cl	89.6	95.8	95.2	56.6	99.1	121	6.82	72.9	103	53.9	6.98	82.7	99	94.9	49.6	104	114	7.12	67.1	91.7	34.3	7.48	80.3	105	99.6	85.2	111	124	8.44	60.7	105	45.6	13.2
C[C@@H]1COCCN1C\2=C\C(=O)N\3CC[C@H](N(CC4=CN=CC(=C4)Cl)C3=N2)C(F)(F)F	88	83.8	91.6	97.5	85.9	97.8	91.5	94	78.8	43.2	24.8	109	109	120	96.4	115	117	122	88.5	74.4	43.4	25.1	89.6	92.3	96.9	90.9	83.4	98.7	107	89.2	71.2	42.4	34.1
CC(=O)N1CCN(c2ccc(OCc3nn(C)c(C)c3-c3cccc4c(CCCOc5cccc6ccccc56)c(C(=O)O)n(Cc5cccnc5)c34)cc2)CC1	92.6	91.9	106	112	107	126	115	120	122	108	108	87.6	78	86.4	93.6	81.8	103	108	115	105	104	84.7	101	85.1	115	112	119	127	112	115	109	113	104
OCc1ccc(-c2nn(Cc3ccccc3)c3ccccc23)o1	115	128	124	111	113	113	117	38.1	96.1	44.6	19.3	116	110	126	100	119	107	98.1	18.2	80.9	37.4	11.2	–	–	–	–	–	–	–	–	–	–	–
CC(C)Nc1cc(C(F)(F)F)cc2nc(NC(=O)c3cccnc3)nn12	113	105	101	118	119	96.6	102	42.3	26.5	13.7	5.96	113	112	95.3	110	107	89.2	94.2	18	15.8	8.3	2.38	126	98.6	116	113	102	94	101	23.2	16.3	11.1	4.75
